# Experimental data published in ChEMBL document CHEMBL2157867, “2-(4-Chlorophenyl)-2-oxoethyl 4-benzamidobenzoate derivatives, a novel class of SENP1 inhibitors: Virtual screening, synthesis and biological evaluation” (Bioorg Med Chem Lett, 2012).
# Target: T1, Sentrin-specific protease 1 (Homo sapiens, UniProt Q9P0U3)
# T1 sequence (Q9P0U3 whole entry): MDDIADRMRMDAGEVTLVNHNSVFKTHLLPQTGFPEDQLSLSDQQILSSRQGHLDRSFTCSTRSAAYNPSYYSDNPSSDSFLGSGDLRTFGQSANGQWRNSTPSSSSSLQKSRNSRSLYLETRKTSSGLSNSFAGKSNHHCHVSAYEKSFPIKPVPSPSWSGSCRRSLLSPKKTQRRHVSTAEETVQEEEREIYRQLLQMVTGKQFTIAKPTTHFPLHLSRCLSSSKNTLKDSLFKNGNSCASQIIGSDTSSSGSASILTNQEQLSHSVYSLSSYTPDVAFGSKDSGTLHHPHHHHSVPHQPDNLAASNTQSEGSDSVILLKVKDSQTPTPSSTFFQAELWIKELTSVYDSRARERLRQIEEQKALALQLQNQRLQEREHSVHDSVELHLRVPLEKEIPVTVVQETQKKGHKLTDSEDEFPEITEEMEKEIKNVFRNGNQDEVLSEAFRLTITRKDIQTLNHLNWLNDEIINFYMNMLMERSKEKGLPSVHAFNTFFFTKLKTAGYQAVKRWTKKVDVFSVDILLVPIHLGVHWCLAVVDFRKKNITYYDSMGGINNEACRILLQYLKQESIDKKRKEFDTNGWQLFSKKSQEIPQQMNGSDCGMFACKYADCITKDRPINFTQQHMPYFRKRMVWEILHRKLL
# Assay: Inhibition of recombinant His-tagged SENP1 catalytic domain expressed in Escherichia coli BL21(DE3) using His-tagged deltaRanGAP-SUMO2 as substrate incubated for 10 mins prior to substrate addition measured after 45 mins by SDS-PAGE analysis
row,IC50,SMILES
1,> 50 µM,Nc1cccc(C(=O)Nc2ccc(C(=O)OCC(=O)c3ccc(Cl)cc3)cc2)c1
2,> 50 µM,O=C(COC(=O)c1ccc(NC(=O)c2cccc(O)c2)cc1)c1ccc(Cl)cc1
3,> 50 µM,COc1ccc(C(=O)Nc2ccc(C(=O)OCC(=O)c3ccc(Cl)cc3)cc2)cc1OC
4,> 50 µM,CCOc1ccc(C(=O)Nc2ccc(C(=O)OCC(=O)c3ccc(Cl)cc3)cc2)cc1OCC
